According to patent US20150181873A1, “HERBICIDE-RESISTANT SUNFLOWER PLANTS, POLYNUCLEOTIDES ENCODING HERBICIDE=RESISTANT ACETO HYDROXY ACID SYNTHASE LARGE SUBUNIT PROTEINS, AND METHODS OF USE” (NIDERA S.A., priority 2013, published 2015):

Key:
Format in all cases: in vivo, Helianthus annuus
Settings in all cases: 14 DAT
[1] = system: sunflower hybrid TH1 (A205V); assay: Greenhouse imazapir dose response, TH1
Protocol: (§1) A greenhouse study was conducted to quantify and contrast the imazapir sensivity of the mutants A122T and A205V in different genetic backgrounds at the whole plant level in sunflower. Seeds of the different sunflower lines that were used in this study were obtained under field conditions.
(§2) Seeds were sown in Petri dishes and, after germination, plantlets were transplanted to pots of 10 cm of diameter in a potting media consisting of equal parts of vermiculite, soil and sand. Plants were grown in a greenhouse under natural light conditions supplemented with 400 W sodium halide lamps to provide a 16 hrs daylength. Day/night temperatures were 25 and 20° C., respectively. At the V2 stage 10 plants of each genotype were randomly assigned to each treatment consisting of […] imazapir doses (0, 40, 80, 160, 240, 320, 400 and 480 g ai/ha), and a zero-time biomass determination. Experiment was arranged as a randomized block design with a full factorial (sunflower line×treatment) arrangement of treatments and 10 replications.
(§3) On the day of herbicide application ten plants of each genotype were cut at the cotyledonal node and dried at 60° C. for 48 hrs zero-time for dried weight determination. […] Height was determined as the distance between the cotyledonal node and the apex of each plant. For root biomass determination, each plant was taken from the pot and the potting media was washed out from the roots. Above ground biomass data from each line were converted to biomass accumulation after application by subtracting the appropriate average zero-time biomass from each sample. Dry biomass data were converted to percentages of the untreated control plants within each line to allow direct comparisons between groups.

[2] = system: sunflower restorer line TH10 (A205V); assay: Greenhouse imazapir dose response, TH10
Protocol: as §1, §2, §3

[3] = system: sunflower line IB920 (A205V); assay: Greenhouse imazapir dose response, IB920
Protocol: as §1, §2, §3

[4] = system: sunflower hybrid TH11 (A122T); assay: Greenhouse imazapir dose response, TH11
Protocol: as §1, §2, §3

[5] = system: sunflower line GM40 (A122T); assay: Greenhouse imazapir dose response, GM40
Protocol: as §1, §2, §3

CC(C)C1(C)N=C(c2ncccc2C(=O)O)NC1=O (stereo not drawn) [Imazapyr, imazapyr]
Phytotoxicity Index ([1]; 0.5x (40 g ai/ha)): 0 | biomass accumulation, % of untreated ([1]; 0.5x (40 g ai/ha)): 95.0% | plant height, % of untreated ([1]; 0.5x (40 g ai/ha)): 99.5% | root dry weight, % of untreated ([1]; 0.5x (40 g ai/ha)): 79.4% | Phytotoxicity Index ([1]; 1x (80 g ai/ha)): 0 | biomass accumulation, % of untreated ([1]; 1x (80 g ai/ha)): 89.6% | plant height, % of untreated ([1]; 1x (80 g ai/ha)): 99.5% | root dry weight, % of untreated ([1]; 1x (80 g ai/ha)): 70.7% | Phytotoxicity Index ([1]; 2x (160 g ai/ha)): 1.8 | biomass accumulation, % of untreated ([1]; 2x (160 g ai/ha)): 75.5% | plant height, % of untreated ([1]; 2x (160 g ai/ha)): 78.6% | root dry weight, % of untreated ([1]; 2x (160 g ai/ha)): 69.6% | Phytotoxicity Index ([1]; 3x (240 g ai/ha)): 6.4 | biomass accumulation, % of untreated ([1]; 3x (240 g ai/ha)): 60.4% | plant height, % of untreated ([1]; 3x (240 g ai/ha)): 48.4% | root dry weight, % of untreated ([1]; 3x (240 g ai/ha)): 42.3% | Phytotoxicity Index ([1]; 4x (320 g ai/ha)): 8.0 | biomass accumulation, % of untreated ([1]; 4x (320 g ai/ha)): 46.5% | plant height, % of untreated ([1]; 4x (320 g ai/ha)): 28.9% | root dry weight, % of untreated ([1]; 4x (320 g ai/ha)): 38.6% | Phytotoxicity Index ([1]; 5x (400 g ai/ha)): 8.9 | biomass accumulation, % of untreated ([1]; 5x (400 g ai/ha)): 38.9% | plant height, % of untreated ([1]; 5x (400 g ai/ha)): 25.3% | root dry weight, % of untreated ([1]; 5x (400 g ai/ha)): 34.7% | Phytotoxicity Index ([1]; 6x (480 g ai/ha)): 9.0 | biomass accumulation, % of untreated ([1]; 6x (480 g ai/ha)): 33.9% | plant height, % of untreated ([1]; 6x (480 g ai/ha)): 27.1% | root dry weight, % of untreated ([1]; 6x (480 g ai/ha)): 23.1% | Phytotoxicity Index ([2]; 0.5x (40 g ai/ha)): 0 | biomass accumulation, % of untreated ([2]; 0.5x (40 g ai/ha)): 99.2% | plant height, % of untreated ([2]; 0.5x (40 g ai/ha)): 99.2% | root dry weight, % of untreated ([2]; 0.5x (40 g ai/ha)): 90.3% | Phytotoxicity Index ([2]; 1x (80 g ai/ha)): 0 | biomass accumulation, % of untreated ([2]; 1x (80 g ai/ha)): 85.0% | plant height, % of untreated ([2]; 1x (80 g ai/ha)): 98.1% | root dry weight, % of untreated ([2]; 1x (80 g ai/ha)): 69.9% | Phytotoxicity Index ([2]; 2x (160 g ai/ha)): 3.1 | biomass accumulation, % of untreated ([2]; 2x (160 g ai/ha)): 58.1% | plant height, % of untreated ([2]; 2x (160 g ai/ha)): 63.6% | root dry weight, % of untreated ([2]; 2x (160 g ai/ha)): 41.3% | Phytotoxicity Index ([2]; 3x (240 g ai/ha)): 3.9 | biomass accumulation, % of untreated ([2]; 3x (240 g ai/ha)): 48.1% | plant height, % of untreated ([2]; 3x (240 g ai/ha)): 51.9% | root dry weight, % of untreated ([2]; 3x (240 g ai/ha)): 42.8% | Phytotoxicity Index ([2]; 4x (320 g ai/ha)): 5.9 | biomass accumulation, % of untreated ([2]; 4x (320 g ai/ha)): 28.8% | plant height, % of untreated ([2]; 4x (320 g ai/ha)): 27.5% | root dry weight, % of untreated ([2]; 4x (320 g ai/ha)): 22.3% | Phytotoxicity Index ([2]; 5x (400 g ai/ha)): 6.9 | biomass accumulation, % of untreated ([2]; 5x (400 g ai/ha)): 27.4% | plant height, % of untreated ([2]; 5x (400 g ai/ha)): 26.0% | root dry weight, % of untreated ([2]; 5x (400 g ai/ha)): 22.7% | Phytotoxicity Index ([2]; 6x (480 g ai/ha)): 6.7 | biomass accumulation, % of untreated ([2]; 6x (480 g ai/ha)): 24.9% | plant height, % of untreated ([2]; 6x (480 g ai/ha)): 29.3% | root dry weight, % of untreated ([2]; 6x (480 g ai/ha)): 16.4% | biomass accumulation, % of untreated ([3]; 0.5x (40 g ai/ha)): 93.9% | plant height, % of untreated ([3]; 0.5x (40 g ai/ha)): 96.2% | root dry weight, % of untreated ([3]; 0.5x (40 g ai/ha)): 94.0% | biomass accumulation, % of untreated ([3]; 1x (80 g ai/ha)): 87.9% | plant height, % of untreated ([3]; 1x (80 g ai/ha)): 80.0% | root dry weight, % of untreated ([3]; 1x (80 g ai/ha)): 89.6% | biomass accumulation, % of untreated ([3]; 2x (160 g ai/ha)): 58.8% | plant height, % of untreated ([3]; 2x (160 g ai/ha)): 61.5% | root dry weight, % of untreated ([3]; 2x (160 g ai/ha)): 50.7% | biomass accumulation, % of untreated ([3]; 3x (240 g ai/ha)): 46.4% | plant height, % of untreated ([3]; 3x (240 g ai/ha)): 40.9% | root dry weight, % of untreated ([3]; 3x (240 g ai/ha)): 37.3% | biomass accumulation, % of untreated ([3]; 4x (320 g ai/ha)): 35.5% | plant height, % of untreated ([3]; 4x (320 g ai/ha)): 27.9% | root dry weight, % of untreated ([3]; 4x (320 g ai/ha)): 32.8% | biomass accumulation, % of untreated ([3]; 5x (400 g ai/ha)): 33.9% | plant height, % of untreated ([3]; 5x (400 g ai/ha)): 30.0% | root dry weight, % of untreated ([3]; 5x (400 g ai/ha)): 25.4% | biomass accumulation, % of untreated ([3]; 6x (480 g ai/ha)): 29.4% | plant height, % of untreated ([3]; 6x (480 g ai/ha)): 27.1% | root dry weight, % of untreated ([3]; 6x (480 g ai/ha)): 19.4% | Phytotoxicity Index ([4]; 0.5x (40 g ai/ha)): 0.4 | biomass accumulation, % of untreated ([4]; 0.5x (40 g ai/ha)): 96.6% | plant height, % of untreated ([4]; 0.5x (40 g ai/ha)): 100.4% | root dry weight, % of untreated ([4]; 0.5x (40 g ai/ha)): 100% | Phytotoxicity Index ([4]; 1x (80 g ai/ha)): 0.4 | biomass accumulation, % of untreated ([4]; 1x (80 g ai/ha)): 93.9% | plant height, % of untreated ([4]; 1x (80 g ai/ha)): 99.9% | root dry weight, % of untreated ([4]; 1x (80 g ai/ha)): 99.0% | Phytotoxicity Index ([4]; 2x (160 g ai/ha)): 0.4 | biomass accumulation, % of untreated ([4]; 2x (160 g ai/ha)): 81.6% | plant height, % of untreated ([4]; 2x (160 g ai/ha)): 92.0% | root dry weight, % of untreated ([4]; 2x (160 g ai/ha)): 86.1% | Phytotoxicity Index ([4]; 3x (240 g ai/ha)): 0.5 | biomass accumulation, % of untreated ([4]; 3x (240 g ai/ha)): 75.8% | plant height, % of untreated ([4]; 3x (240 g ai/ha)): 90.5% | root dry weight, % of untreated ([4]; 3x (240 g ai/ha)): 81.5% | Phytotoxicity Index ([4]; 4x (320 g ai/ha)): 1.0 | biomass accumulation, % of untreated ([4]; 4x (320 g ai/ha)): 75.0% | plant height, % of untreated ([4]; 4x (320 g ai/ha)): 90.8% | root dry weight, % of untreated ([4]; 4x (320 g ai/ha)): 72.6% | Phytotoxicity Index ([4]; 5x (400 g ai/ha)): 2.0 | biomass accumulation, % of untreated ([4]; 5x (400 g ai/ha)): 60.1% | plant height, % of untreated ([4]; 5x (400 g ai/ha)): 84.4% | root dry weight, % of untreated ([4]; 5x (400 g ai/ha)): 68.9% | Phytotoxicity Index ([4]; 6x (480 g ai/ha)): 2.5 | biomass accumulation, % of untreated ([4]; 6x (480 g ai/ha)): 59.6% | plant height, % of untreated ([4]; 6x (480 g ai/ha)): 84.4% | root dry weight, % of untreated ([4]; 6x (480 g ai/ha)): 45.3% | biomass accumulation, % of untreated ([5]; 0.5x (40 g ai/ha)): 96.5% | plant height, % of untreated ([5]; 0.5x (40 g ai/ha)): 99.6% | root dry weight, % of untreated ([5]; 0.5x (40 g ai/ha)): 100% | biomass accumulation, % of untreated ([5]; 1x (80 g ai/ha)): 94.1% | plant height, % of untreated ([5]; 1x (80 g ai/ha)): 97.4% | root dry weight, % of untreated ([5]; 1x (80 g ai/ha)): 100% | biomass accumulation, % of untreated ([5]; 2x (160 g ai/ha)): 97.6% | plant height, % of untreated ([5]; 2x (160 g ai/ha)): 95.2% | root dry weight, % of untreated ([5]; 2x (160 g ai/ha)): 100% | biomass accumulation, % of untreated ([5]; 3x (240 g ai/ha)): 95.8% | plant height, % of untreated ([5]; 3x (240 g ai/ha)): 93.0% | root dry weight, % of untreated ([5]; 3x (240 g ai/ha)): 92.2% | biomass accumulation, % of untreated ([5]; 4x (320 g ai/ha)): 88.3% | plant height, % of untreated ([5]; 4x (320 g ai/ha)): 93.0% | root dry weight, % of untreated ([5]; 4x (320 g ai/ha)): 96.1% | biomass accumulation, % of untreated ([5]; 5x (400 g ai/ha)): 85.6% | plant height, % of untreated ([5]; 5x (400 g ai/ha)): 93.9% | root dry weight, % of untreated ([5]; 5x (400 g ai/ha)): 84.2% | biomass accumulation, % of untreated ([5]; 6x (480 g ai/ha)): 76.8% | plant height, % of untreated ([5]; 6x (480 g ai/ha)): 84.3% | root dry weight, % of untreated ([5]; 6x (480 g ai/ha)): 74.3%
